# Experimental data from patent publication US20180186742A1, “PICOLINAMIDES AS FUNGICIDES” (Dow AgroSciences LLC, priority 2017, published 2018).
# Like-named read-outs stand apart in the source and are kept apart here.
# Experiments:
# Assay type in all cases: in vivo
# Zymoseptoria tritici = assay: Leaf blotch of wheat (SEPTTR), disease control on wheat seedlings; conditions: low volume application at 121.5 g/H
# How it was run: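 Z. tritici spores were inoculated onto wheat seedlings (Yuma, first leaf emerged) either before or after treatment. Treatment was an automated spray to run-off of acetone/Triton X-100 water solutions, or a track spray of EC formulations with 0.1% Trycol 5941. Plants were held in dew chambers at 20 °C and then a greenhouse at 20 °C. First-leaf severity (0–100%) was converted to percent control against untreated plants.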
# Puccinia triticina = assay: Wheat brown rust (PUCCRT), disease control on wheat seedlings; conditions: low volume application at 121.5 g/H
# How it was run: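 Compounds in acetone, diluted with nine volumes of water containing 110 ppm Triton X-100, sprayed to run-off on first-leaf Yuma wheat seedlings; track-spray tests used EC formulations with 0.1% Trycol 5941. Puccinia triticina spores applied before or after treatment. Overnight dark dew room at 22° C, 100% humidity, then greenhouse at 24° C.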
# Phakopsora pachyrhizi = assay: Asian soybean rust (PHAKPA), disease control on soybean seedlings; conditions: High volume application at 25 ppm
# How it was run: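 Two-week-old Williams 82 soybean seedlings were sprayed to run-off with compound in acetone/water (1:9) containing 0.011% Tween 20. Inoculation was 3 days before (curative) or 1 day after (protectant) treatment, followed by 24 h dark dew at 22 °C, 100% RH, then 23 °C; disease severity scored on sprayed leaves.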
# [1] = 24 h, 1 Day Protectant, read-out: SEPTTR disease control, 1DP, LV activity
# [2] = 72 h, 3 Day Curative, read-out: SEPTTR disease control, 3DC, LV activity
# [3] = 24 h, 1 Day Protectant, read-out: PUCCRT disease control, 1DP, LV activity
# [4] = 72 h, 3 Day Curative, read-out: PUCCRT disease control, 3DC, LV activity
# [5] = 24 h, 1 Day Protectant, read-out: PHAKPA 1DP disease control rating
# [6] = 72 h, 3 Day Curative, read-out: PHAKPA 3DC disease control rating
# [7] = 24 h, 1 Day Protectant, wheat leaf blotch, read-out: SEPTTR 1DP disease control, LV activity
# [8] = 72 h, 3 Day Curative, wheat leaf blotch, read-out: SEPTTR 3DC disease control, LV activity
# [9] = 24 h, 1 Day Protectant, wheat brown rust, read-out: PUCCRT 1DP disease control, LV activity
# [10] = 72 h, 3 Day Curative, wheat brown rust, read-out: PUCCRT 3DC disease control, LV activity
Compound,pest or weed control at 121.5 g/ha (Zymoseptoria tritici; [1]) [%],pest or weed control at 121.5 g/ha (Zymoseptoria tritici; [2]) [%],pest or weed control at 121.5 g/ha (Puccinia triticina; [3]) [%],pest or weed control at 121.5 g/ha (Puccinia triticina; [4]) [%],pest or weed control at 25 ppm (Phakopsora pachyrhizi; [5]) [%],pest or weed control at 25 ppm (Phakopsora pachyrhizi; [6]) [%],pest or weed control at 121.5 g/ha (Zymoseptoria tritici; [7]) [%],pest or weed control at 121.5 g/ha (Zymoseptoria tritici; [8]) [%],pest or weed control at 121.5 g/ha (Puccinia triticina; [9]) [%],pest or weed control at 121.5 g/ha (Puccinia triticina; [10]) [%]
COc1cc(F)ccc1[C@H](C1CCCC1)[C@H](C)OC(=O)[C@H](C)NC(=O)c1nccc(OC)c1OCOC(C)=O [Compound 235],< 80,< 80,> 80,< 80,> 80,< 80,–,–,–,–
CCC(C)[C@@H](c1ccc(F)cc1C)[C@H](C)OC(=O)[C@H](C)NC(=O)c1nccc(OC)c1OC(C)=O (stereo partly drawn) [Compound 188],> 80,> 80,> 80,< 80,> 80,> 80,–,–,–,–
COCCC(=O)Oc1c(OC)ccnc1C(=O)N[C@@H](C)C(=O)O[C@@H](C)[C@H](c1ccc(F)cc1OC)C(C)C [Compound 239],> 80,< 80,> 80,> 80,> 80,> 80,–,–,–,–
COc1ccnc(C(=O)N[C@@H](C)C(=O)O[C@@H](C)[C@H](c2ccccc2OC(C)C)C(C)C)c1OC(C)=O [Compound 376],–,–,–,–,> 80,< 80,< 80,< 80,> 80,< 80
COc1cc(F)ccc1[C@H](C1CCC1)[C@H](C)OC(=O)[C@H](C)NC(=O)c1nccc(OC)c1OC(C)=O [Compound 231],< 80,< 80,< 80,< 80,> 80,< 80,–,–,–,–
COCCC(=O)Oc1c(OC)ccnc1C(=O)NCC(=O)O[C@@H](C)[C@H](c1ccc(F)cc1C)C(C)C [Compound 350],< 80,< 80,> 80,> 80,> 80,> 80,–,–,–,–
COc1ccnc(C(=O)N[C@@H](C)C(=O)O[C@@H](C)[C@@H](c2ccc(F)cc2C)C2CCCCC2)c1OC(C)=O [Compound 181],< 80,> 80,< 80,< 80,< 0,< 80,–,–,–,–
COc1ccnc2c(=O)n([C@@H](C)C(=O)O[C@@H](C)[C@@H](c3ccc(C)cc3C)C3CCCC3)c(=O)oc12 [Compound 209],< 80,< 80,< 0,< 0,< 80,< 0,–,–,–,–
COCCC(=O)Oc1c(OC)ccnc1C(=O)N[C@@H](CC(C)C)C(=O)O[C@@H](C)[C@H](c1ccc(F)cc1C)C(C)C [Compound 353],< 80,< 80,< 80,< 80,> 80,< 80,–,–,–,–
COc1ccnc(C(=O)N[C@@H](C)C(=O)O[C@H](C)[C@H](c2ccc(F)cc2C)C2CCCC2)c1OCOC(C)=O [Compound 198],< 80,< 80,< 80,< 0,< 80,< 80,–,–,–,–
COc1ccnc(C(=O)N[C@@H](C)C(=O)O[C@@H](C)[C@H](c2ccc(C)cc2C)C(C)C)c1OC(C)=O [Compound 362],> 80,> 80,> 80,> 80,> 80,> 80,–,–,–,–
CCC(C)[C@H](c1ccc(C)cc1C)[C@H](C)OC(=O)[C@H](C)NC(=O)c1nccc(OC)c1OC(C)=O (stereo partly drawn) [Compound 203],< 80,< 80,< 80,< 80,> 80,< 0,–,–,–,–
COc1ccnc(C(=O)N[C@@H](C)C(=O)O[C@@H](C)[C@H](c2cc(F)ccc2C)C(C)C)c1OC(C)=O [Compound 361],< 80,< 80,> 80,< 80,> 80,> 80,–,–,–,–
COc1ccnc(C(=O)N[C@@H](C)C(=O)O[C@@H](C)[C@H](c2ccccc2)C(C)C)c1OCOC(C)=O [Compound 164],> 80,> 80,> 80,> 80,> 80,< 80,–,–,–,–
COc1ccnc(C(=O)N[C@@H](C)C(=O)O[C@@H](C)[C@H](c2ccc(Cl)cc2Cl)C(C)C)c1OC(C)=O [Compound 367],–,–,–,–,> 80,> 80,> 80,< 80,> 80,> 80
COc1ccnc(C(=O)N[C@@H](C)C(=O)O[C@@H](C)[C@H](c2ccc(F)c(F)c2)C(C)C)c1OC(C)=O [Compound 244],> 80,< 80,> 80,> 80,> 80,< 80,–,–,–,–
COc1ccnc(C(=O)N[C@@H](C)C(=O)O[C@@H](C)[C@H](c2ccc(F)cc2)C(C)C)c1OC(C)=O [Compound 214],> 80,> 80,> 80,> 80,> 80,< 80,–,–,–,–
CC[C@H](C)[C@H](NC(=O)c1nccc(OC)c1OC(=O)CCOC)C(=O)O[C@@H](C)[C@H](c1ccc(F)cc1C)C(C)C [Compound 352],< 80,< 80,> 80,< 80,> 80,< 80,–,–,–,–
COc1ccnc(C(=O)N[C@@H](C)C(=O)O[C@@H](C)[C@@H](c2ccc(C)cc2F)C(C)C)c1OC(C)=O [Compound 369],–,–,–,–,< 80,< 80,< 80,< 80,> 80,< 80
COc1ccnc(C(=O)N[C@@H](C)C(=O)O[C@@H](C)[C@@H](c2ccc(F)cc2C)C2CCC2)c1OC(C)=O [Compound 183],< 80,> 80,< 80,< 80,< 80,< 80,–,–,–,–
COc1ccnc(C(=O)N[C@@H](C)C(=O)O[C@@H](C)[C@@H](c2ccc(C)cc2C)C2CCCCC2)c1OC(C)=O [Compound 202],< 80,< 80,> 80,< 0,< 80,< 0,–,–,–,–
COc1ccnc(C(=O)N[C@@H](C)C(=O)O[C@@H](C)[C@H](c2ccc(F)cc2C)C2CCC2)c1OCOC(C)=O [Compound 197],> 80,> 80,> 80,> 80,> 80,> 80,–,–,–,–
CCC(CC)[C@H](c1ccc(F)cc1OC)[C@H](C)OC(=O)[C@H](C)NC(=O)c1nccc(OC)c1OC(C)=O [Compound 222],> 80,> 80,> 80,< 80,> 80,< 80,–,–,–,–
COc1cc(F)ccc1[C@@H](C1CCCCC1)[C@H](C)OC(=O)[C@H](C)NC(=O)c1nccc(OC)c1OCOC(C)=O [Compound 233],> 80,> 80,< 80,< 80,< 80,< 80,–,–,–,–
